Holding throughout (type): biochemical
Assay [1] concerns the target T1, ENPP1 (Homo sapiens, UniProt P22413).
T1 sequence (P22413 1-925): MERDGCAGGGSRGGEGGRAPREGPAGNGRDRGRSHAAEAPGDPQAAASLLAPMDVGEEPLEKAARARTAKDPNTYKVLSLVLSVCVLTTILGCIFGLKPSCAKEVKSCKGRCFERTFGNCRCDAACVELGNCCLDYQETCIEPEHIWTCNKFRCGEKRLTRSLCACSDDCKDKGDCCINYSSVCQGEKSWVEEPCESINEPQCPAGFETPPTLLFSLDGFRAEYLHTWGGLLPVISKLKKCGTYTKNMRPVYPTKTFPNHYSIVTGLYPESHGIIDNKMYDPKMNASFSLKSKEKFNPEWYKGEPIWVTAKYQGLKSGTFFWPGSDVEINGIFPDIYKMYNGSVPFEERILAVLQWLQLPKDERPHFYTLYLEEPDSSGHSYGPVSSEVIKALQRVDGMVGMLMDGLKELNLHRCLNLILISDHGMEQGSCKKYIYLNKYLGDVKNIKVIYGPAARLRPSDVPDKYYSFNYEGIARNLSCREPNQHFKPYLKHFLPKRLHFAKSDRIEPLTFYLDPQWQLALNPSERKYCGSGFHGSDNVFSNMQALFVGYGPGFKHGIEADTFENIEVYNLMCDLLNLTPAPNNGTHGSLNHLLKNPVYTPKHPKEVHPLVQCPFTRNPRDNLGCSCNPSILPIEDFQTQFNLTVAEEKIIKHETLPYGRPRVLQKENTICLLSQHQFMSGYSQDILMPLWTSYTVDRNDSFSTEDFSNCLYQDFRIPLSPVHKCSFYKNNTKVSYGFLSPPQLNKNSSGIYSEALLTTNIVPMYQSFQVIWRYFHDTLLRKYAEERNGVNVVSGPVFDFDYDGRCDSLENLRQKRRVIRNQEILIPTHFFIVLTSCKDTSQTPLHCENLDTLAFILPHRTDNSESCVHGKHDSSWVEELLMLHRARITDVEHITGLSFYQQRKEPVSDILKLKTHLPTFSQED
Kind of assay: Substrate selectivity ratio, inhibition of cGAMP hydrolysis versus ATP hydrolysis. The note with it: ratio Ki AMP-pNP / Ki cGAMP. The protocol:
The selectivity ratios for inhibition of cGAMP hydrolysis versus ATP hydrolysis were then calculated as follows: […]

Assay [2] has as its target T1, ENPP1. Put plainly: Indirect quantitation of 2',3'-cGAMP hydrolysis (AMP-Glo Assay kit). The note with it: cGAMP substrate; Ki from IC50 by Cheng-Prusoff; read-out: ENPP1 Inhibition -cGAMP: Ki.
Assay [3] has as its target T1, ENPP1. Put plainly: ENPP1 enzyme assay with AMP-pNP substrate (hydrolysis of ATP analog). The note with it: AMP-pNP substrate (ATP analog); Ki from IC50 by Cheng-Prusoff; read-out: ENPP1 Inhibition _AMP-pNP: Ki. Here is the method: The ENPP1 assay with AMP-pNP substrate is conducted in a buffer containing 50 mM Tris-HCl (pH 8.5)/ 250 mM NaCl/0.5 mM CaCl2/1 µM ZnCl2/0.1% DMSO. Inhibitors are added at final concentrations ranging between 10 µM and 30 pM depending on the compound. Duplicate wells are run at each inhibitor concentration. The final assay volume is 40 µL and human recombinant ENPP1 is present at 60 ng/well. The assay is initiated by the addition of substrate (300 µM AMP-pNP final concentration), and incubated for 20 minutes at 37° C. […] Each assay plate also includes wells with no enzyme added (MIN OD) and wells with no inhibitor added (MAX OD). The percent inhibition of ENPP1 for each sample is then calculated as: […]
IC50 values of compounds were calculated by entering the percent inhibition values into a sigmoidal variable slope nonlinear regression model in GraphPad Prism® software.

Structures are written as SMILES.

As a reminder, the Ki is a dissociation constant, usually derived from enzyme kinetics or from competition with a known ligand. Take `COc1ccc2c(-c3ccc4c(c3)CN(S(N)(=O)=O)C4)ccnc2c1` [Example 402, 5-(7-methoxyquinolin-4-yl)isoindoline-2-sulfonamide]: the “Substrate Selectivity: Ki_AMP-pNP/Ki_cGAMP” value (“Substrate Selectivity” below) in assay [1] is 46. In addition, the Ki was below 100 nM in assay [2] and 100 to 1000 nM in assay [3].
As to `COc1cc2ncc(C#N)c(-c3ccc(CN(C4CC4)S(N)(=O)=O)cc3)c2cc1OC` [Example 290, N-(4-(3-cyano-6,7-dimethoxyquinolin-4-yl)benzyl)-N-cyclopropylsulfamide], the “Substrate Selectivity” value in assay [1] is on record as 17.1. In addition, the Ki in assay [2] was below 100 nM; in assay [3] it was 100 to 1000 nM.
Turning to `COc1cc2ncc(C#N)c(Nc3ccc(NS(N)(=O)=O)cc3)c2cc1OC` [Example 175, N-(4-((3-cyano-6,7-dimethoxyquinolin-4-yl)amino)phenyl)sulfamide], in assay [1], the “Substrate Selectivity” value is above 63.3. Further, the inhibitory constant (Ki) in assay [2] is below 100 nM; in assay [3], above 1000 nM.
Taken in the same sequence, the figures for `COc1cc2ncc(C#N)c(-c3ccc4c(c3)CN(S(N)(=O)=O)CC4)c2cc1F` [Example 316, 7-(3-cyano-6-fluoro-7-methoxyquinolin-4-yl)-3,4-dihydroisoquinoline-2(1H)-sulfonamide] were above 533, below 100 nM and above 1000 nM.
The corresponding values for `COc1cc2ncnc(NC3CCC(NS(N)(=O)=O)CC3)c2cc1OC` (stereo not drawn) [Example 272, N-(4-((6,7-dimethoxyquinazolin-4-yl)amino)cyclohexyl)sulfamide] are above 35.2, below 100 nM and above 1000 nM.
On to `COc1cc2ncnc(N3CCC(CCC(=O)O)CC3)c2cc1OC` [Example 171, 3-(1-(6,7-dimethoxyquinazolin-4-yl)piperidin-4-yl)propanoic acid], for which, in assay [1], the “Substrate Selectivity” value is listed as above 50.7. The Ki is 100 to 1000 nM in assay [2] and above 1000 nM in assay [3].
`COc1cc2ncnc(N3CCC(CCNS(N)(=O)=O)CC3)c2cc1Cl` [Example 169, N-(2-(1-(6-chloro-7-methoxyquinazolin-4-yl)piperidin-4-yl)ethyl)sulfamide]: in assay [1], the “Substrate Selectivity” value was 6.9. Moreover, the figures for the Ki in assay [2] and in assay [3] were below 100 nM and 100 to 1000 nM, respectively.
The corresponding values for `COc1cc2ncnc(N3CCC(CNS(N)(=O)=O)CC3)c2cc1OC` [Example 339, N-((1-(6,7-dimethoxyquinazolin-4-yl)piperidin-4-yl)methyl)sulfamide] are 38.5, below 100 nM and 100 to 1000 nM.
Take `COc1cc2ncnc(-c3ccc(CNS(N)(=O)=O)cc3)c2cc1OC` [Example 144, N-(4-(6,7-dimethoxyquinazolin-4-yl)benzyl)sulfamide]: the “Substrate Selectivity” value in assay [1] was found to be 189.2. In addition, the Ki is below 100 nM in assay [2] and 100 to 1000 nM in assay [3].
The corresponding values for `COc1cc2nccc(N3CC4(C3)CN(S(N)(=O)=O)C4)c2cc1OC` [Example 214, 6-(6,7-dimethoxyquinolin-4-yl)-2,6-diazaspiro[3.3]heptane-2-sulfonamide] are above 15.3, 100 to 1000 nM and above 1000 nM.
The corresponding values for `COc1ccc2c(-c3ccc(CNS(N)(=O)=O)cc3)c(F)cnc2c1` [Example 381, N-(4-(7-methoxy-3-Fluoro-quinolin-4-yl)benzyl) Sulfamide] are above 38, below 100 nM and 100 to 1000 nM.
For `COc1cc2nccc(N3CCc4cc(NS(N)(=O)=O)ccc43)c2cc1F` [Example 72, N-(1-(6-fluoro-7-methoxyquinolin-4-yl)indolin-5-yl)sulfamide], in assay [1], the “Substrate Selectivity” value is reported as 11.9. Moreover, the Ki in assay [2] and in assay [3] was below 100 nM in each case.
For `COc1ccc2c(-c3ccc(C(C)NS(N)(=O)=O)cc3)ccnc2c1` (stereo not drawn) [Example 416, N-(1-(4-(7-methoxyquinolin-4-yl)phenyl)ethyl)sulfamide], the “Substrate Selectivity” value in assay [1] is recorded as 50. The Ki was below 100 nM in assay [2] and 100 to 1000 nM in assay [3].
For `COc1cc2ncnc(NC(C)c3ccc(NS(N)(=O)=O)cc3)c2cc1OC` (stereo in doubt) [Example 254, (S)-N-(4-(1-((6,7-dimethoxyquinazolin-4-yl)amino)ethyl)phenyl)sulfamide], the “Substrate Selectivity” value in assay [1] is above 31.4. In addition, the Ki was below 100 nM in assay [2] and above 1000 nM in assay [3].
Turning to `N#Cc1cnc2cc(OC(F)F)ccc2c1-c1ccc2c(c1)CN(S(N)(=O)=O)CC2` [Example 262, 7-(3-cyano-7-(difluoromethoxy)quinolin-4-yl)-3,4-dihydroisoquinoline-2(1H)-sulfonamide], the “Substrate Selectivity” value in assay [1] was above 173. For the same molecule, the Ki in assay [2] was 100 to 1000 nM; in assay [3] it was above 1000 nM.
The corresponding values for `COc1ccc2c(Oc3ccc(NS(N)(=O)=O)cc3)ncnc2n1` [Example 227, N-(4-((7-methoxypyrido[2,3-d]pyrimidin-4-yl)oxy)phenyl)sulfamide] are 51.9, below 100 nM and 100 to 1000 nM.
For the molecule `COc1cc2nccc(Oc3cc(F)c(NS(N)(=O)=O)c(F)c3)c2cc1OC` [Example 271, N-(4-((6,7-dimethoxyquinolin-4-yl)oxy)-2,6-difluorophenyl)sulfamide], the “Substrate Selectivity” value in assay [1] was above 16.2. For the same molecule, the Ki was 100 to 1000 nM in assay [2] and above 1000 nM in assay [3].
Taken in the same sequence, the figures for `COc1cc2nccc(NCc3ccc(NS(N)(=O)=O)cc3)c2cc1OC` [Example 180, N-(4-(((6,7-dimethoxyquinolin-4-yl)amino)methyl)phenyl)sulfamide] were above 11.9, 100 to 1000 nM and above 1000 nM.
The corresponding values for `NS(=O)(=O)c1ccc(Oc2ccnc3[nH]c(=O)ccc23)cc1` [Example 352, 4-((7-oxo-7,8-dihydro-1,8-naphthyridin-4-yl)oxy)benzenesulfonamide] are 43, below 100 nM and 100 to 1000 nM.
On to `COc1cc2ncc(F)c(-c3ccc4c(c3)CN(S(N)(=O)=O)CC4)c2cc1OC` [Example 229, 7-(3-fluoro-6,7-dimethoxyquinolin-4-yl)-3,4-dihydroisoquinoline-2(1H)-sulfonamide], for which the “Substrate Selectivity” value in assay [1] is on record as 27.2. In addition, the Ki in assay [2] and in assay [3] was below 100 nM each time.
As to `COc1ccc2nccc(N3CCC4(CC3)CCN(S(N)(=O)=O)C4)c2c1` [Example 364, 8-(6-methoxyquinolin-4-yl)-2,8-diazaspiro[4.5]decane-2-sulfonamide], in assay [1], the “Substrate Selectivity” value stood at 43. Besides, the Ki in assay [2] is below 100 nM; in assay [3] it was 100 to 1000 nM.
Taken in the same sequence, the figures for `COc1cc2ncc(C(N)=O)c(N3CCC(CCNS(N)(=O)=O)CC3)c2cc1OC` [Example 19, 6,7-dimethoxy-4-(4-(2-(sulfamoylamino)ethyl)piperidin-1-yl)quinoline-3-carboxamide] were above 95.8, below 100 nM and above 1000 nM.
The corresponding values for `COc1cc2nccc(N3CCC(CN(C4CC4)S(N)(=O)=O)CC3)c2cc1OC` [Example 212, N-cyclopropyl-N-((1-(6,7-dimethoxyquinolin-4-yl)piperidin-4-yl)methyl)sulfamide] are above 46.1, below 100 nM and above 1000 nM.

For the origin of these results see patent publication US20230183239A1, “ECTONUCLEOTIDE PYROPHOSPHATASE-PHOSPHODIESTERASE 1 (ENPP-1) INHIBITORS AND USES THEREOF” (AbbVie Inc., priority 2017, published 2023).
